Data on eight compounds can be found in patent US10889581B2, “Cyclopropyl fused thiazine derivatives as beta-secretase inhibitors and methods of use” (AMGEN INC., priority 2016, dated 2021).

Test [1] addresses T1, BACE1 (Homo sapiens (Human), UniProt P56817). Put plainly: In vitro enzymatic BACE1 FRET assay. Type of test: biochemical. As to conditions: pH 4.5, read-out: BACE1 Enzyme IC50.
Target sequence in this assay (P56817 46-501): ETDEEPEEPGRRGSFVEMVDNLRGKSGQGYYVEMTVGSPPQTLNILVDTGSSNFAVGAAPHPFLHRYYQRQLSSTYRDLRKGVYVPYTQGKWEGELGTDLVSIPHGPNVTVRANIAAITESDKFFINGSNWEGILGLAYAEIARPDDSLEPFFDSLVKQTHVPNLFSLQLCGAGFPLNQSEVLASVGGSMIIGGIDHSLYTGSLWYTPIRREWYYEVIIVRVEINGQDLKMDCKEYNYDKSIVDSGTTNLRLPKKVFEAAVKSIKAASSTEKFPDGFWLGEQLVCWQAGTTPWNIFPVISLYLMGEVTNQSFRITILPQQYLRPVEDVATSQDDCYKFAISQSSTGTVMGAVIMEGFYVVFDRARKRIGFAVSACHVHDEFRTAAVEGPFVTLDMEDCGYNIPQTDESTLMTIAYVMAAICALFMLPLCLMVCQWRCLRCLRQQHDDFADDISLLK
The target of test [2] is T1, BACE1. Put plainly: In vitro BACE1 cell-based assay (Aβ40 in conditioned medium of cells stably expressing APP, HTRF). As to the method:
In Vitro BACE1 Cell-Based Assay
The cell-based assay measures inhibition or reduction of Aβ40 in conditioned medium of test compound treated cells expressing amyloid precursor protein. Cells stably expressing Amyloid Precursor Protein (APP) were plated at a density of 45K cells/well in 384 well plates (Corning/BioCoat 354663). The test compounds were then added to cells in 22-point dose response concentrations with the starting concentration being 62.5 μM. The compounds were diluted from stock solutions in DMSO and the final DMSO concentration of the test compounds on cells was 0.625%. The cells were cultivated overnight at 37° C. and 5% CO2 in DMEM supplemented with 10% FBS. After 24 h of incubation with the test compounds, the conditioned media was collected and the Aβ40 levels were determined using HTRF (Homogeneous Time Resolved Fluorescence). The IC50 of the compound was calculated from the percent of control or percent inhibition of Aβ40 as a function of the concentration of the test compound.
The HTRF to detect Aβ40 was performed in 384 well plates (Costar 3658). The antibody pair that were used to detect Aβ40 from cell supernatants were ConfAb40 antibody (Amgen in-house) and biotinylated 6E10 (BIOLEGEND). As an alternative to ConfAb40, a commercially available antibody, Anti-beta Amyloid 1-40 antibody [BDI350] from Abcam, Cambridge, Mass. 02139-1517 (Product code: ab20068), may be used in this assay. The concentrations were 0.35 μg/mL of ConfAb40 antibody and 1.33 μg/mL of 6E10-biotinylated antibody, as well as 4.5 μg/mL of Streptavidin Allophycocyanin Conjugate (ThermoFisher Scientific) in HTRF Buffer ([…], 1% BSA, 0.5% Tween 20).
The conditioned media was incubated with above antibodies and Streptavidin Allophycocyanin Conjugate for 30-60 minutes at 23° C. The final readout was performed on Envision from PerkinElmer.
Target sequence in this assay (P56817 46-501, species assumed): as the sequence (P56817 46-501) above
For orientation: TR-FRET usually uses a lanthanide donor and a delayed reading to cut background.

A further test addresses human recombinant BACE2 (Homo sapiens (Human), UniProt Q9Y5Z0). Put plainly: In vitro enzymatic BACE2 FRET assay. The class given is biochemical. Particulars: pH 4.5, read-out: BACE2 Enzyme IC50.
For another test, the target named is Recombinant CatD (Homo sapiens (Human), UniProt P07339). Put plainly: In vitro enzymatic Cathepsin D (CatD) FRET assay. The class given is biochemical. As to conditions: pH 3.5, read-out: Cat D Enzyme IC50.
Setting [3] is: Aβ40, 24 h incubation, read-out: BACE1 Cell IC50.

The structures appear in SMILES notation. A value given as a limit tells only on which side of the number the result lay.

Recombinant CatD, sequence (P07339 65-412): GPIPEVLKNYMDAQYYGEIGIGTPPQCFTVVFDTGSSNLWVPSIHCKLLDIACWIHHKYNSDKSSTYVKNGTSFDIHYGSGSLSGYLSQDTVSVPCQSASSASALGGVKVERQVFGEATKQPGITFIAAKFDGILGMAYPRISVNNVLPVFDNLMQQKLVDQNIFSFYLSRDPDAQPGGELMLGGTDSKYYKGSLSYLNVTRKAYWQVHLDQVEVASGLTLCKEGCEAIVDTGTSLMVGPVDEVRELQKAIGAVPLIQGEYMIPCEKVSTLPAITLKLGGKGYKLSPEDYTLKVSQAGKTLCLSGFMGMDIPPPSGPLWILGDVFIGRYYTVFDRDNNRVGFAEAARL
human recombinant BACE2, sequence (Q9Y5Z0 63-518): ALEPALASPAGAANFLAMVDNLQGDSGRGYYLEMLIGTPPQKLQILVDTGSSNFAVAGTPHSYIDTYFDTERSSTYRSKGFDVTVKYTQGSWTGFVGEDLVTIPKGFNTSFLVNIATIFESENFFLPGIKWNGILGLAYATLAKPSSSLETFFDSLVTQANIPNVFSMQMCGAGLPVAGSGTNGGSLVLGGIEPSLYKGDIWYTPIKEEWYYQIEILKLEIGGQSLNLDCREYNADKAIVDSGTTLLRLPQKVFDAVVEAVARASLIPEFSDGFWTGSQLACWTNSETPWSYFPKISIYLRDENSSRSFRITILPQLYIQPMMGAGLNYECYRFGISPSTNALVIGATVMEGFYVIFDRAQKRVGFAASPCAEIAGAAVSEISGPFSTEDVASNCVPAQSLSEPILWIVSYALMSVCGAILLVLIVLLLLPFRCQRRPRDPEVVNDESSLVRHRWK

Regarding `CN(C)C(=O)[C@]12C[C@H]1[C@@](C)(c1cc(C#Cc3ccc(C#N)cc3)ccc1F)N=C(N)S2` [Example 129, (1S,5S,6S)-3-amino-5-(5-((4-cyanophenyl)ethynyl)-2-fluorophenyl)-N,N,5-trimethyl-2-thia-4-azabicyclo[4.1.0]hept-3-ene-1-carboxamide], the IC50 came to 7 nM on BACE1 [1], 58 nM on BACE1 [2], 251 nM at human recombinant BACE2 and 289000 nM at Recombinant CatD.

For the compound `C#CCOc1ccc(C#Cc2ccc(F)c([C@@]3(C)N=C(N)S[C@@]4(C(=O)N(C)C)C[C@H]43)c2)nc1` [Example 130, (1S,5S,6S)-3-amino-5-(2-fluoro-5-((5-(2-propyn-1-yloxy)-2-pyridinyl)ethynyl)phenyl)-N,N,5-trimethyl-2-thia-4-azabicyclo[4.1.0]hept-3-ene-1-carboxamide], the IC50 is 161 nM at BACE1 [1], 152 nM on BACE1 [2] (setting [3]), 432 nM at human recombinant BACE2 and 926000 nM at Recombinant CatD.

As for `Cc1cc(OCc2ncco2)cnc1C#Cc1ccc(F)c([C@@]2(C)N=C(N)S[C@@]3(C(=O)N(C)C)C[C@H]32)c1` [Example 131, (1S,5S,6S)-3-amino-5-(2-fluoro-5-((3-methyl-5-(oxazol-2-ylmethoxy)pyridin-2-yl)ethynyl)phenyl)-N,N,5-trimethyl-2-thia-4-azabicyclo[4.1.0]hept-3-ene-1-carboxamide], the IC50 on BACE1 [1] was found to be 41 nM; at BACE1 [2] (setting [3]) it was 53 nM; on human recombinant BACE2, 2180 nM; at Recombinant CatD, 995000 nM.

As for `CN(C)C(=O)[C@]12C[C@H]1[C@@](C)(c1cc(C#CC3CC3)ccc1F)N=C(N)S2` [Example 132, (1S,5S,6S)-3-amino-5-(5-(cyclopropylethynyl)-2-fluorophenyl)-N,N,5-trimethyl-2-thia-4-azabicyclo[4.1.0]hept-3-ene-1-carboxamide], the IC50 was determined as 20 nM on BACE1 [1], 59 nM at BACE1 [2] (setting [3]), 7 nM on human recombinant BACE2 and 46800 nM at Recombinant CatD.

For the compound `COC[C@]12CC1[C@@](C)(c1cc(C#Cc3ccc(C#N)cn3)ccc1F)N=C(N)S2` (stereo partly drawn) [Example 133, 6-((3-((1S,5S)-3-amino-1-(methoxymethyl)-5-methyl-2-thia-4-azabicyclo[4.1.0]hept-3-en-5-yl)-4-fluorophenyl)ethynyl)nicotinonitrile], the IC50 at BACE1 [1] is 97 nM; against BACE1 [2] it was 59 nM; on human recombinant BACE2, 2320 nM; on Recombinant CatD, above 400000 nM.

On to `COC[C@]12CC1[C@@](C)(c1cc(C#Cc3ncc(C#N)cc3C)ccc1F)N=C(N)S2` (stereo partly drawn) [Example 135, 6-((3-((1S,5S)-3-amino-1-(methoxymethyl)-5-methyl-2-thia-4-azabicyclo[4.1.0]hept-3-en-5-yl)-4-fluorophenyl)ethynyl)-5-methylnicotinonitrile], for which the concentration for half-maximal inhibition (IC50) on BACE1 [1] was 23 nM; at BACE1 [2], 33 nM; at human recombinant BACE2, 1460 nM; at Recombinant CatD it was above 400000 nM.

In the case of `Cc1cc(C#N)cnc1C#Cc1cnc(F)c([C@@]2(C)N=C(N)S[C@@]3(C(=O)N4CCOCC4)CC32)c1` (stereo partly drawn) [Example 136, 6-((5-((1S,5S)-3-amino-5-methyl-1-(morpholine-4-carbonyl)-2-thia-4-azabicyclo[4.1.0]hept-3-en-5-yl)-6-fluoropyridin-3-yl)ethynyl)-5-methylnicotinonitrile], the IC50 on BACE1 [1] is 37 nM; at BACE1 [2], 181 nM; on human recombinant BACE2, 974 nM; at Recombinant CatD it was above 400000 nM.

As for `Cc1cc(C#N)cnc1C#Cc1cnc(F)c([C@@]2(C)N=C(N)S[C@@]3(C(=O)N4CCCC4)CC32)c1` (stereo partly drawn) [Example 137, 6-((5-((1S,5S)-3-amino-5-methyl-1-(pyrrolidine-1-carbonyl)-2-thia-4-azabicyclo[4.1.0]hept-3-en-5-yl)-6-fluoropyridin-3-yl)ethynyl)-5-methylnicotinonitrile], the IC50 on BACE1 [1] was 11 nM; at BACE1 [2], 35 nM; on human recombinant BACE2 it was 474 nM; on Recombinant CatD it was above 400000 nM.

A word on the IC50: it is the point on the concentration scale where inhibition reaches its midpoint.
